According to patent publication US11389423B2, “Pharmaceutical composition, excipient for the composition and use of the composition” (priority 2018, dated 2022):

Assays:
[1] = tested on: Salmonella typhimurium TA98; test: AMES test, strain TA98; assay type: cell-based; conditions: TA98, with (+S9) and without (-S9) metabolic activation, 62.5-375 μg/plate
Source text: For the AMES test, the TA 100 and TA 98 strains of Salmonella typhimurium were used. The strain TA 100, which detects mutagens causing base pair replacement in DNA, contains a mutation in the hisG gene (hisG46), which codes for the first histidine biosynthesis enzyme, with the CG pair as the preferred point for reversion. The strain TA 98 has a mutation in the hisD gene to reverse eight repetitive GC residues and detects mutagenic compounds causing the DNA reading frame to shift. According to the methodology of direct incorporation in plates, developed by Maron and Ames (1983), different concentrations of CBD-SINT (375, 250, 125 and 62.5 μg/plate) were mixed with 0.1 mL of the bacteria culture and 2 mL of surface agar (top agar), supplemented with traces of histidine and biotin. For the tests with metabolic activation, 0.5 mL homogenized microsomal fraction S9 of rat liver (post-mitochondrial fraction, supplemented with a cofactor, prepared from the liver of rodents treated with an enzymatic inducing agent, arochloror 1254) (MOLTOX—Molecular Toxicology, USA) were added. As a negative control, double-distilled water (vehicle) was used. As a positive control for TA98, 4-nirophenylenediamine (NPD) dissolved in DMSO was used at a concentration of 10 μg/plate. […] After this period, the number of reversing colonies per plate was counted. […]

male rabbits = test: Effects on central nervous system, modified Irwin test; assay type: in vivo, New Zealand rabbits; conditions: male rabbits, 17, 51 and 170 mg/kg by gavage, single dose
Description: Male New Zealand rabbits (n=6 per group) were used for pharmacological safety tests. All tests were performed orally (route recommended for humans) and the investigated parameters were determined after a single administration of CBD-SINT. CBD-SINT doses were determined by allometric extrapolation from the average dose used in human patients (25 mg/kg).
The dose of 51 mg/kg was used as the intermediate dose, stipulating a higher and a lower dose. Three dose ranges were used according to the Guide for Conducting Non-Clinical Toxicology and Pharmacological Safety Studies Necessary for Drug Development (ANVISA, 2013; Version 1.2). Thus, the doses used were 17, 51 and 170 mg/kg of CBD-SINT.
Effects on the central nervous system were assessed in male rabbits according to the modified Irwin test (Roux et al., 2005).
After 6 h-fasting, three doses of CBD (17, 51 and 170 mg/kg) were administered to different groups of male rabbits by gavage. Placebo was administered to the control group (1 mL/kg). The solid diet was released to the animals 1 hour after the treatments.
The clinical and behavioral effects were assessed at 0-15 min, 15, 30, 60, 120 and 180 min and 24 h after administrations. […]

[2] = tested on: striatal levels of dopamine, DOPAC and AVM; test: Determination of striatal dopamine, DOPAC and HVA levels (HPLC-ECD), MPTP model; assay type: in vivo, rats
Description: For the experiments with MPTP (neuroprotection), the animals were divided into the following experimental groups: • MPTP+placebo • MPTP+CBD-SINT 12 mg/kg • MPTP+CBD-SINT 36 mg/kg • MPTP+CBD-SINT 120 mg/kg • Sham+placebo • Naive
CBD-SINT and placebo were administered orally (gavage) for 18 days prior to the administration of the neurotoxin by stereotactic surgery, and for another 10 days after surgery. After the administration of the neurotoxin, the behavioral (locomotor activity) and biochemical (brain dopamine dosage) parameters were evaluated after 24 hours and after 10 days. The memory tests (Morris water maze) were performed daily from day 1 to day 10 after the administration of the neurotoxin (FIG. 13).
The rats were submitted to stereotactic surgery (stereotactic—David Kopf, model 957L) and received bilateral microinfusion of MPTP or 6-OHDA (different groups of rats) directly into the substantia nigra. For surgery, the following stereotaxic coordinates were used: anteroposterior: 5.0 mm from the bregma; mediolateral: ±2.1 mm from the midline and dorsoventral: −7.7 mm from the cranial vault (Paxinos and Watson, 1986). Then, 100 μg MPTP (diluted in 1 μL saline, with a flow of 0.33 μL/min) or 8 μg 6-OHDA (diluted in 2 μL saline with 0.2 μg/μL ascorbic acid, with a flow rate of 0.33 μL/min) were injected. The microinfusions were performed with the aid of a needle (30 gauge) connected to a polyethylene tube adapted to a […] micro-syringe (Hamilton, USA), which in turn, is fitted into an infusion pump (Harvard Apparatus, USA). After the end of the microinfusion, the needle was kept in place for another 2 minutes to prevent reflux of the neurotoxins. Then, the scalp was sutured, and the animals were removed from the stereotaxic. The rats were then placed in its original cages. The animals in the Sham groups were subject to the same surgical procedure, however without receiving the neurotoxins, being only introduced to the needle in the same stereotactic coordinates. The rats of naive groups were not subject to stereotactic surgery but were removed from the housing cage for handling for a few hours.
After the last set of experiments, the animals from the nigrostriatal treatment with MPTP and its respective controls were euthanized by decapitation. The levels of dopamine (DA) and its metabolites 3,4-dihydroxyphenylacetic acid (DOPAC) and homovanilic acid (HVA) were determined by high-performance liquid chromatography with an electrochemical detector (HPLC-ECD) according to Luo et al. (2009).
Briefly, the striatum was dissected, weighed, and homogenized in 0.2 M cold perchloric acid. The sample was then centrifuged twice at 14,000 g for 15 min at 4° C. […]

With C=C(C)[C@@H]1CCC(C)=C[C@H]1c1c(O)cc(CCCCC)cc1O [CBD-SINT, Cannabidiol] the “frequency of reversible mutants with the increase in concentration” value [1] was “no increase”, the “mutagenicity ratios (MR)” value [1] was “less than 2” and the “animals' behavior or physiological status until the end of the 24 h” value (male rabbits) was “no significant changes”. For the same molecule, the “inactivity or refusal to consume food or water during the observation period (24 h)” value (male rabbits) was “none of the experimental animals was inactive or refused to consume food or water”, the “striatal levels of DOPAC” value ([2]; MPTP rats, 12 mg/kg orally) was “significantly increase” and the “striatal levels of dopamine” value ([2]; MPTP rats, 12 mg/kg orally) was “significantly increase”. The “levels of all markers after treatment vs naive and Sham groups” value ([2]; MPTP rats, 12, 36 and 120 mg/kg orally) was “statistically lower” and the “striatal concentration of all evaluated markers (dopamine, DOPAC and AVM)” value ([2]; MPTP rats, 36 and 120 mg/kg orally) was “increased”.
